The series concerns cultured human respiratory epithelium. The experiment in a line: Permeation across cultured human respiratory epithelium (EpiAir tissue), apical-to-basolateral Papp. The conditions noted are these: p<0.05, two-tailed t-test, N=3. The text has this: An in vitro model of MatTek EpiAir® tissue was used for the permeability assessment of the test articles and control compounds. The EpiAir® culture consists of cells that have been cultured to form a pseudo-stratified, highly differentiated model closely resembling the epithelial tissue of the human respiratory tract. The histological cross-sections of the cultured tissue reveal a pseudo-stratified mucociliary phenotype.
EpiAir® tissues plated in 12 well plates were pre-equilibrated for the assay by culturing them for 24 hours at 37° C. with 5% CO2 in a humidified incubator. On the day of the assay, the cultures were washed two times with Dulbeccos' Phosphate Buffered Saline (DPBS buffer) at pH 7.4, and then dosed with donor and receiver buffer applied to the apical and basolateral surfaces of the culture, respectively. The receiver buffer consisted of DPBS, at pH 7.4. The donor solution consisted of DPBS buffer containing the appropriate compounds as specified in Table 1. All treatments were performed in triplicate. The receiver buffer was sampled at 15, 30, 60, and 120 minutes, and the donor buffer was sampled at 120 minutes.
The Lucifer Yellow concentration in the receiver samples was measured using a FluoStar fluorescence plate reader (BMG Laboratories, Durham, N.C.).
The apparent permeability coefficient, Papp, was calculated as follows: […]
where: dCr/dt is the slope of the cumulative concentration in the receiver compartment versus time; Vr is the volume of the receiver compartment; A is the surface area of epithelium available for permeation; and Co is the dosing solution concentration.

Entries after “also recorded” stand apart in the source; their conditions may differ.

As to `CNCC/C=C/c1cccnc1` [Compound B, N-methyl-(4-pyridin-3-yl-but-3-enyl)-amine], the “Permeation (Papp) in the presence of the MAO inhibitor Pargyline compared to alone” value is recorded as “significantly lower Papp value in the absence, than in the presence; also recorded: significant increased”.

These data come from US20100028447A1, “Intranasal, Buccal, And Sublingual Administration Of Metanicotine Analogs” (TARGACEPT, INC., priority 2007, published 2010).
